In patent publication US7951829B2, “Benzimidazole modulators of VR1” (Janssen Pharmaceutica NV, priority 2006, dated 2011):

Target: T1, hVR1 (Homo sapiens, UniProt Q8NER1)
T1 construct: expressed in transfected cells; host or cells: HEK293
Experiment: Human VR1 (hVR1) Functional Assay (FLIPR intracellular calcium, capsaicin challenge)
Assay type: cell-based
Conditions: capsaicin 0.030 μM, HEK293 cells expressing hVR1; for inhibition at 1 µM: test concentration 1 μM

T1 sequence (Q8NER1 whole entry): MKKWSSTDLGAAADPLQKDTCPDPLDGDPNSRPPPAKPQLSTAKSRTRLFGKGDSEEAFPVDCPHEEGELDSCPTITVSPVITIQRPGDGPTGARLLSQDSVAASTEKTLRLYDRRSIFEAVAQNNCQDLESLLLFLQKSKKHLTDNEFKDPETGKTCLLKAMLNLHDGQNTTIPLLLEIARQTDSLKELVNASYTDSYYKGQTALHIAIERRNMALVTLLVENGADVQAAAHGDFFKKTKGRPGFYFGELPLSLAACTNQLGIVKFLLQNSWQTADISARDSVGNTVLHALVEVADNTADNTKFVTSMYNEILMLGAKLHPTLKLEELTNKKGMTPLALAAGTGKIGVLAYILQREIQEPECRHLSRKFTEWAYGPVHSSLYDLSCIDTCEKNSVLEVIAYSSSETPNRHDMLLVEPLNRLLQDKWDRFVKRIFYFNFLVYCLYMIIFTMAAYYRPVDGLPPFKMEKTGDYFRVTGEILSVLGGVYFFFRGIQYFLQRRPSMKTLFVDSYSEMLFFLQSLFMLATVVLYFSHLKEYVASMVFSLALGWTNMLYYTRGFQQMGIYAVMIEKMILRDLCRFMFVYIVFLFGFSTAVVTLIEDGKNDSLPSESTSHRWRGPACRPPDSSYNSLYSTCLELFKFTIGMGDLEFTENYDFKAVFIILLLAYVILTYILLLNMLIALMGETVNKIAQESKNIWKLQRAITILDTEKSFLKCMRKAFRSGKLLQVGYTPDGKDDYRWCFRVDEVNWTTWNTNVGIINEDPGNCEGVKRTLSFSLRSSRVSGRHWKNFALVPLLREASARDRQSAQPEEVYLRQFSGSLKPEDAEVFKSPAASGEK

| SMILES | inhibition at 5 µM (test concentration 5 μM (footnote 1)) [%] | IC50 [µM] | inhibition at 1 µM [%] |
| --- | --- | --- | --- |
| CC(C)(C)c1ccc(CCc2nc3cc(-c4ccc(O)cc4)ccc3[nH]2)cc1 [Cpd 34, 4-{2-[2-(4-tert-butyl-phenyl)-ethyl]-1H-benzimidazol-5-yl}-phenol] | 75 |  |  |
| CS(=O)(=O)Nc1ccccc1-c1ccc2[nH]c(/C=C/c3ccc(OCC(F)(F)F)cc3)nc2c1 [Cpd 95, (E)-N-[2-(2-{2-[4-(2,2,2-trifluoro-ethoxy)-phenyl]-vinyl}-1H-benzimidazol-5-yl)-phenyl]-methanesulfonamide] |  | 0.301 | 81 |
| CNS(=O)(=O)c1ccccc1-c1ccc2[nH]c(/C=C/c3ccc(S(C)(=O)=O)cc3)nc2c1 [Cpd 351, (E)-2-{2-[2-(4-methanesulfonyl-phenyl)-vinyl]-1H-benzimidazol-5-yl}-N-methyl-benzenesulfonamide] |  | > 0.5 |  |
| CS(=O)(=O)c1ccc(CCc2nc3cc(-c4ccccc4S(N)(=O)=O)ccc3[nH]2)cc1 [Cpd 145, 2-{2-[2-(4-methanesulfonyl-phenyl)-ethyl]-1H-benzimidazol-5-yl}-benzenesulfonamide] |  |  | 19 |
| CC(=O)c1ccccc1-c1ccc2[nH]c(/C=C/c3ccc(SC(F)(F)F)cc3)nc2c1 [Cpd 39, (E)-1-(2-{2-[2-(4-trifluoromethylsulfanyl-phenyl)-vinyl]-1H-benzimidazol-5-yl}-phenyl)-ethanone] |  | 0.2 | 98 |
| NS(=O)(=O)c1ccccc1-c1ccc2[nH]c(CCc3ccc(F)cc3F)nc2c1 [Cpd 392, 2-{2-[2-(2,4-difluoro-phenyl)-ethyl]-1H-benzimidazol-5-yl}-benzenesulfonamide] |  | 0.01 | 97 |
| NS(=O)(=O)c1ccccc1-c1ccc2[nH]c(/C=C/c3cccc(F)c3F)nc2c1 [Cpd 359, (E)-2-{2-[2-(2,3-difluoro-phenyl)-vinyl]-1H-benzimidazol-5-yl}-benzenesulfonamide] |  | 0.024 | 98 |
| NS(=O)(=O)c1ccccc1-c1ccc2[nH]c(/C=C/c3cccc(C(F)(F)F)c3F)nc2c1 [Cpd 368, (E)-2-{2-[2-(2-fluoro-3-trifluoromethyl-phenyl)-vinyl]-1H-benzimidazol-5-yl}-benzenesulfonamide] |  | 0.015 | 99 |
| CS(=O)(=O)Nc1ccccc1-c1ccc2[nH]c(/C=C/c3ccc(S(C)(=O)=O)cc3)nc2c1 [Cpd 83, (E)-N-(2-{2-[2-(4-methanesulfonyl-phenyl)-vinyl]-1H-benzimidazol-5-yl}-phenyl)-methanesulfonamide] |  | > 0.5 |  |
| CS(=O)(=O)Nc1ccccc1-c1ccc2[nH]c(/C=C/c3ccc(Br)cc3)nc2c1 [Cpd 406, (E)-N-(2-{2-[2-(4-bromo-phenyl)-vinyl]-1H-benzimidazol-5-yl}-phenyl)-methanesulfonamide] |  | 0.17 | 97 |
| O=S(=O)(c1ccc(/C=C/c2nc3cc(-c4ccccc4CO)ccc3[nH]2)cc1)C(F)(F)F [Cpd 42, (E)-(2-{2-[2-(4-trifluoromethanesulfonyl-phenyl)-vinyl]-1H-benzimidazol-5-yl}-phenyl)-methanol] |  | 0.022 | 100 |
| CNS(=O)(=O)c1ccccc1-c1ccc2[nH]c(/C=C/c3ccc(F)c(Cl)c3)nc2c1 [Cpd 321, (E)-2-{2-[2-(3-chloro-4-fluoro-phenyl)-vinyl]-1H-benzimidazol-5-yl}-N-methyl-benzenesulfonamide] |  | 0.018 | 100 |
| O=Cc1ccccc1-c1ccc2[nH]c(/C=C/c3ccc(C(F)(F)F)cc3)nc2c1 [Cpd 484, (E)-2-{2-[2-(4-trifluoromethyl-phenyl)-vinyl]-1H-benzimidazol-5-yl}-benzaldehyde] |  | > 0.5 |  |
| CNS(=O)(=O)c1ccccc1-c1ccc2[nH]c(/C=C/c3ccc(OC(F)(F)F)cc3)nc2c1 [Cpd 345, (E)-N-methyl-2-{2-[2-(4-trifluoromethoxy-phenyl)-vinyl]-1H-benzimidazol-5-yl}-benzenesulfonamide] |  | 0.013 | 101 |
| CC(O)c1ccccc1-c1ccc2[nH]c(/C=C/c3ccc(C(F)(F)F)cc3)nc2c1 (centres unmarked) [Cpd 16, (E)-1-(2-{2-[2-(4-trifluoromethyl-phenyl)-vinyl]-1H-benzimidazol-5-yl}-phenyl)-ethanol] |  | 0.045 | 100 |
| FC(F)(F)c1ccc(/C=C/c2nc3cc(-c4ccccc4C(F)(F)F)ccc3[nH]2)cc1 [Cpd 487, (E)-5-(2-trifluoromethyl-phenyl)-2-[2-(4-trifluoromethyl-phenyl)-vinyl]-1H-benzimidazole] |  |  | 20 |
| NS(=O)(=O)c1ccccc1-c1ccc2[nH]c(/C=C/c3cccc(Cl)c3F)nc2c1 [Cpd 431, (E)-2-{2-[2-(3-chloro-2-fluoro-phenyl)-vinyl]-1H-benzimidazol-5-yl}-benzenesulfonamide] |  | 0.035 | 97 |
| CS(=O)(=O)Nc1ccccc1-c1ccc2[nH]c(/C=C/c3ccc(F)c(F)c3)nc2c1 [Cpd 28, (E)-N-(2-{2-[2-(3,4-difluoro-phenyl)-vinyl]-1H-benzimidazol-5-yl}-phenyl)-methanesulfonamide] |  | 0.25 | 96 |

| SMILES | inhibition at 5 µM (test concentration 5 μM (footnote 1)) [%] | IC50 [µM] | inhibition at 1 µM [%] |
| --- | --- | --- | --- |
| NS(=O)(=O)c1ccccc1-c1ccc2[nH]c(/C=C/c3ccc(C(F)(F)F)cc3F)nc2c1 [Cpd 424, (E)-2-{2-[2-(2-fluoro-4-trifluoromethyl-phenyl)-vinyl]-1H-benzimidazol-5-yl}-benzenesulfonamide] |  | 0.011 | 99 |
| CC(C)(O)c1ccccc1-c1ccc2[nH]c(C3CC3c3cccc(C(F)(F)F)c3)nc2c1 (centres unmarked) [Cpd 234, 2-(2-{2-[2-(3-trifluoromethyl-phenyl)-cyclopropyl]-1H-benzimidazol-5-yl}-phenyl)-propan-2-ol] |  |  | 7 |
| CNS(=O)(=O)c1ccccc1-c1ccc2[nH]c(/C=C/c3cc(F)cc(F)c3)nc2c1 [Cpd 328, (E)-2-{2-[2-(3,5-difluoro-phenyl)-vinyl]-1H-benzimidazol-5-yl}-N-methyl-benzenesulfonamide] |  | 0.035 | 99 |
| CC(=O)Nc1ccccc1-c1ccc2[nH]c(/C=C/c3ccc(C(F)(F)F)cc3)nc2c1 [Cpd 478, (E)-N-(2-{2-[2-(4-trifluoromethyl-phenyl)-vinyl]-1H-benzimidazol-5-yl}-phenyl)-acetamide] |  | > 0.5 |  |
| CS(=O)(=O)Nc1ccccc1-c1ccc2[nH]c(/C=C/c3ccc(C(F)(F)F)c(F)c3)nc2c1 [Cpd 417, (E)-N-(2-{2-[2-(3-fluoro-4-trifluoromethyl-phenyl)-vinyl]-1H-benzimidazol-5-yl}-phenyl)-methanesulfonamide] |  | 0.011 | 100 |
| NS(=O)(=O)c1ccccc1-c1ccc2[nH]c(/C=C/c3ccc(Cl)c(C(F)(F)F)c3)nc2c1 [Cpd 378, (E)-2-{2-[2-(4-chloro-3-trifluoromethyl-phenyl)-vinyl]-1H-benzimidazol-5-yl}-benzenesulfonamide] |  | 0.012 | 100 |
| CC(C)(C)c1ccc(CCCc2nc3cc(-c4ccccc4O)ccc3[nH]2)cc1 [Cpd 29, 2-{2-[3-(4-tert-butyl-phenyl)-propyl]-1H-benzimidazol-5-yl}-phenol] |  |  | 6 |
| OCc1ccccc1-c1ccc2[nH]c(/C=C/c3ccc(SC(F)(F)F)cc3)nc2c1 [Cpd 35, (E)-(2-{2-[2-(4-trifluoromethylsulfanyl-phenyl)-vinyl]-1H-benzimidazol-5-yl}-phenyl)-methanol] |  | 0.041 | 100 |
| NS(=O)(=O)c1ccccc1-c1ccc2[nH]c(/C=C/c3cccc(OC(F)(F)F)c3)nc2c1 [Cpd 362, (E)-2-{2-[2-(3-trifluoromethoxy-phenyl)-vinyl]-1H-benzimidazol-5-yl}-benzenesulfonamide] |  | 0.008 | 99 |
| CNS(=O)(=O)c1ccccc1-c1ccc2[nH]c(/C=C/c3c(F)cccc3Cl)nc2c1 [Cpd 336, (E)-2-{2-[2-(2-chloro-6-fluoro-phenyl)-vinyl]-1H-benzimidazol-5-yl}-N-methyl-benzenesulfonamide] |  | 0.24 | 89 |
| CC(=O)Nc1ccccc1-c1ccc2[nH]c(/C=C/c3ccc(S(=O)(=O)C(F)(F)F)cc3)nc2c1 [Cpd 43, (E)-N-(2-{2-[2-(4-trifluoromethanesulfonyl-phenyl)-vinyl]-1H-benzimidazol-5-yl}-phenyl)-acetamide] |  | 0.89 | 58 |
| CNCc1ccccc1-c1ccc2[nH]c(/C=C/c3ccc(C(F)(F)F)cc3)nc2c1 [Cpd 485, (E)-methyl-(2-{2-[2-(4-trifluoromethyl-phenyl)-vinyl]-1H-benzimidazol-5-yl}-benzyl)-amine] |  | > 0.5 |  |
| CNS(=O)(=O)c1ccccc1-c1ccc2[nH]c(/C=C/c3ccc(F)cc3C(F)(F)F)nc2c1 [Cpd 330, (E)-2-{2-[2-(4-fluoro-2-trifluoromethyl-phenyl)-vinyl]-1H-benzimidazol-5-yl}-N-methyl-benzenesulfonamide] |  | 0.131 | 85 |
| CC(O)c1ccccc1-c1ccc2[nH]c(/C=C/c3ccc(C(C)(C)C)cc3)nc2c1 (centres unmarked) [Cpd 2, (E)-1-(2-{2-[2-(4-tert-butyl-phenyl)-vinyl]-1H-benzimidazol-5-yl}-phenyl)-ethanol] |  | 0.012 | 100 |
| OCc1ccccc1-c1ccc2[nH]c(C3CC3c3ccc(C(F)(F)F)cc3)nc2c1 (centres unmarked) [Cpd 474, (2-{2-[2-(4-trifluoromethyl-phenyl)-cyclopropyl]-1H-benzimidazol-5-yl}-phenyl)-methanol] |  | > 0.5 |  |
| NS(=O)(=O)c1ccccc1-c1ccc2[nH]c(CCc3cccc(C(F)(F)F)c3)nc2c1 [Cpd 175, 2-{2-[2-(3-trifluoromethyl-phenyl)-ethyl]-1H-benzimidazol-5-yl}-benzenesulfonamide] |  | 0.016 | 100 |
| OCc1ccccc1-c1cc2nc(/C=C/c3ccc(C(F)(F)F)cc3)[nH]c2cc1C(F)(F)F [Cpd 58, (E)-(2-{6-trifluoromethyl-2-[2-(4-trifluoromethyl-phenyl)-vinyl]-1H-benzimidazol-5-yl}-phenyl)-methanol] |  | 0.095 | 87 |
